Broadly, the Ki is the dissociation constant of the complex between target and ligand, obtained from inhibition or displacement. The term Km denotes the substrate concentration at which the rate is half of its maximum.

Data on 5 compounds can be found in US9498759B2, “Compartmentalized screening by microfluidic control” (President and Fellows of Harvard College, priority 2004, dated 2016).

Data set [1] deals with T1, E. coli β-galactosidase (LacZ) (Escherichia coli, UniProt P00722). The class given is biochemical.
Method: In the enzyme inhibition assay, the rate of catalysis is determined by using a non-fluorescent substrate for LacZ, fluorescein mono-β-D-galactoside (FMG) (FMG), and measuring the appearance of the fluorescent product, fluorescein (excitation 488 nm, emission 514 nm). All components of the LacZ inhibition assay are dissolved in assay buffer (10 mm MgCl2, 50 mM NaCl, 1 mM DTT, 100 μg/ml BSA, 10 mM Tris-HCl, pH 7.9.
Leading into each droplet forming module (FIG. 15) are two Teflon tubes leading from syringe pumps. The channels leading from each tube merge to create a single flow before entering the droplet forming module. The two syringes feeding into the first droplet forming module contain, (a) 50 μM PETG in assay buffer, and (b), assay buffer. The two syringes feeding into the second droplet forming module contain, (c) 100 nM LacZ in assay buffer and (d), assay buffer. The two syringes feeding into the third droplet forming module contain, (e) 5 mM FMG in assay buffer, and (f), assay buffer. The final concentration of each component in each droplet is independently controllable by adjusting relative flow rates of each component and buffer solution while maintaining a constant combined flow rate from both syringes.
The first droplet fusion mixes the inhibitor (PETG) with the enzyme (LacZ). After the combined droplet has spent two minutes in a delay line it is fused with a third droplet containing the fluorogenic enzyme substrate (FMG). Finally, after all the components are mixed the reaction is observed by measuring fluorescence of individual droplets or by integrating fluorescent light from droplets with the same concentration of each component during 10-second exposure time at multiple points in the second 10 min long delay line. Each fluorescence intensity value at different positions is proportional to the amount of product at different reaction times. Rate of product formation is linear during initial reaction time and initial rate (ν) can be determined from linear fitting. […]
Data set [2] concerns the target T1, E. coli β-galactosidase (LacZ). The conditions noted are these: Huang, 1991, cited from earlier work.
Data set [3] in a line: Compartmentalisation of small molecules in water-in-fluorocarbon emulsions (epifluorescence microscopy). The class given is physicochemical. The conditions noted are these: water-in-perfluorooctyl bromide emulsions mixed by vortexing, imaged after 24 hours. As for the experimental part: FIG. 19. Compartmentalisation of small molecules in water-in-fluorocarbon emulsions. Water-in-perfluorooctyl bromide emulsions were made containing texas red (1 mM) and calcein ([…] in the aqueous phase by homogenisation as described in example 9. The two emulsions were mixed by vortexing and imaged by epifluorescence microscopy after 24 hours. No exchange of texas-red (red fluorescence) and calcein (green fluorescence) between microdroplets could be observed.
Water-in-fluorocarbon emulsions containing 95% (v/v) perfluorooctyl bromide, 5% (v/v) phosphate buffered saline containing the molecule of interest in solution, and 2% (w/v) C8F17C11H22OP(O)[N(CH2CH2)2O]2 (F8H1DMP) as surfactant were formed essentially as (Sadtler et al., 1996) by extrusion (15 times) through 14 μm filters (Osmonics) or by homogenising for 5 min at 25,000 r.p.m. using an Ultra-Turrax T8 Homogenizer (IKA) with a 5 mm dispersing tool. Emulsions were made containing a series of small fluorescent molecules dissolved in the aqueous phase at concentrations from […] to 2 mM. These molecules, including calcein, texas red, fluorescein, coumarin 102, 7-hydroxycoumarin-3-carboxylic acid and 7-diethylamino-4-methyl coumarin (coumarin 1), had molecular weights from 203 to 625 Da and Log P values—calculated using SRC's Log Kow/KowWin Program (Meylan and Howard, 1995)—ranging from −0.49 to 4.09. […]

Data set [4] concerns the target T2, human recombinant PTP1B, residues 1-322 (Homo sapiens, UniProt P18031).
T2 construct: human recombinant PTP1B, residues 1-322; purchased Biomol Research Laboratories, Inc
T2 sequence (P18031 1-322): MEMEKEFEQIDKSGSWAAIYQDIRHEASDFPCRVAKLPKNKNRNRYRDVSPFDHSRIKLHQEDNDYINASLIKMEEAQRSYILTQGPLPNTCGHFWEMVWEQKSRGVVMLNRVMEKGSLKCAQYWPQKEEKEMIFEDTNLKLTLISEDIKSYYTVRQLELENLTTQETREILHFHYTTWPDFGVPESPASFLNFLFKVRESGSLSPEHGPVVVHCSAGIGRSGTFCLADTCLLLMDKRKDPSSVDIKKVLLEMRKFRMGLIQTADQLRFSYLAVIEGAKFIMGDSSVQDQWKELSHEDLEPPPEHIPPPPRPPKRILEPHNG
As to the kind of experiment: Screening for PTP1B inhibitors using microcapsules in a microfluidic system (DiFMUP fluorescence). It counts as biochemical. The conditions noted are these: 100 μM compound solution, PTP1B 50 mU/ml, substrate DiFMUP, excitation/emission 358/452 nm. As for the experimental part: All water-soluble reagents are dissolved in (25 mM HEPES, pH 7.4, 125 mM NaCl, 1 mM EDTA), a buffer compatible with PTP1B activity. […] Each microcapsule containing target enzyme is fused with a microcapsule containing compound 2 or a microcapsule containing hydrocinnamic acid. Microcapsules containing either compound 2 or hydrocinnamic acid can be formed by switching between injection with syringes containing compound 2 and hydrocinnamic acid.
After microcapsule fusion the contents are rapidly mixed. After this point the microcapsules are run for up to 1 min through a 60 cm long microchannel (to allow inhibitor binding). This microchannel is then merged with a second microchannel containing, aqueous microcapsules containing the fluorogenic PTP1B substrate 6,8-difluoro-4-methylumbelliferyl phosphate (DiFMUP) (Molecular Probes) in 25 mM HEPES, pH 7.4, 125 mM NaCl, 1 mM EDTA and the microcapsules fused pairwise. The fused microcapsules are then run for up to 2 min through a 60 cm long microchannel. Fluorescence of the microcapsules due to production of DiFMU (excitation/emmission maxima 358/452 nm; blue fluorescence) is measured.

In another data set the target is T3, PTP1B (Homo sapiens, UniProt P18031).
T3 sequence (P18031 1-435): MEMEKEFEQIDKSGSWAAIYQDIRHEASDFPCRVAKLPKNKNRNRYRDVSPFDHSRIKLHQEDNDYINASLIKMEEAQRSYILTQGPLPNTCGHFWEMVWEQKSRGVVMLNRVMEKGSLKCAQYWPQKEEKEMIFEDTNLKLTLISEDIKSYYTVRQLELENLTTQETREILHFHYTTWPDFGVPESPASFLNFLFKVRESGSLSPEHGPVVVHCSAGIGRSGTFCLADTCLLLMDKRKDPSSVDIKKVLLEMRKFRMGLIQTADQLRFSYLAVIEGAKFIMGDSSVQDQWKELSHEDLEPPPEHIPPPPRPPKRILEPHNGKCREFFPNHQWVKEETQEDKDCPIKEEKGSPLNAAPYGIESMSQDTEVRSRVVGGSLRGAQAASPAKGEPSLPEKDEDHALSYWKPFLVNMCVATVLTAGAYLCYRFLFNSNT
The conditions noted are these: Johnson et al., 2002; cited from earlier work.

Where [5] appears, read: 30 nM LacZ, 0 to 13 μM PETG, 10 to 700 μM FMG.

T1 sequence (P00722 2-1024): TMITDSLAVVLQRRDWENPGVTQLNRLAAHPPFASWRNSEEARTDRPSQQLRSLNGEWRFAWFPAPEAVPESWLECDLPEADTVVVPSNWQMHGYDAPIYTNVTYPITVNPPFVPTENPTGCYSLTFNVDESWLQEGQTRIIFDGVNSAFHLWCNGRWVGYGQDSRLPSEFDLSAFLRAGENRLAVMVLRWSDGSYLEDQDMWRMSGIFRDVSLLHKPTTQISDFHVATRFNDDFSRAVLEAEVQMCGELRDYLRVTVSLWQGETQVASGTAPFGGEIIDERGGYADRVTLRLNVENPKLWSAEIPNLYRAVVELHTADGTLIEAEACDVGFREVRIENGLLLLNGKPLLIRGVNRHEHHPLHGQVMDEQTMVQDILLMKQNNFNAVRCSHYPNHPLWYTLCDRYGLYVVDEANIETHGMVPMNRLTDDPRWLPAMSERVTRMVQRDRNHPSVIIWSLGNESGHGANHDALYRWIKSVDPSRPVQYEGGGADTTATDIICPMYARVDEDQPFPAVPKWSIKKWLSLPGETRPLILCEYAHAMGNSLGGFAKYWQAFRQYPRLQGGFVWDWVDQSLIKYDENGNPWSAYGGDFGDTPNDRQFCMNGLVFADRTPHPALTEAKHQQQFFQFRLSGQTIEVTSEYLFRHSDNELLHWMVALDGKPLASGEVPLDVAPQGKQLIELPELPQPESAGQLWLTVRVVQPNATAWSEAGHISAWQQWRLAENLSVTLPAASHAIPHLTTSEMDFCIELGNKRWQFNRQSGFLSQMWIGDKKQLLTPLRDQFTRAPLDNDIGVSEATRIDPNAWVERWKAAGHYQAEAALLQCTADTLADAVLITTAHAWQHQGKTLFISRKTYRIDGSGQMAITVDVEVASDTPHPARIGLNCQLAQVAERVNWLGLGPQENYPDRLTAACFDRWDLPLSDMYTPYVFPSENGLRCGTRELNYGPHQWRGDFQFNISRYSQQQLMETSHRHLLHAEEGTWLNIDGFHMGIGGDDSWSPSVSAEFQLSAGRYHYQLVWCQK

Take `OCC1OC(SCCc2ccccc2)C(O)C(O)C1O` [PETG, phenylethyl β-D-thiogalactopyranoside]: the “Ki of PETG for LacZ determined in fused microcapsules” value in data set [1] (setting [5]) is “within the range of the previously published value”. Further, in data set [1] (Lineweaver-Burk plot, same y-intercept at different PETG concentrations), the Mode of inhibition entry is on record as “competitive”. For the same compound, the Ki in data set [2] (read-out: Ki of PETG for LacZ, previously published value) is 980 nM.
Turning to texas red, the Exchange between microdroplets/compartments entry in data set [3] is reported as “No exchange”.
Take `O=C1OC2(c3ccc(O)cc3Oc3cc(O[C@@H]4O[C@H](CO)[C@H](O)[C@H](O)[C@H]4O)ccc32)c2ccccc21` (stereo partly drawn) [FMG, fluorescein mono-β-D-galactoside]: in data set [1] (setting [5]), the “KM of FMG for LacZ determined in fused microcapsules, deviation from previously published value” was ≤ 20%. For the same compound, the Km in data set [2] (read-out: KM of FMG for LacZ, previously published value) was 118 µM.
For the compound `O=C(O)CN(CC(=O)O)Cc1cc2c(cc1O)Oc1cc(O)c(CN(CC(=O)O)CC(=O)O)cc1C21OC(=O)c2ccccc21` [calcein], the Exchange between microdroplets/compartments result in data set [3] is recorded as “No exchange”.
For `O=C(O)CCc1ccccc1` [hydrocinnamic acid], the “Fluorescence of the microcapsules due to production of DiFMU (blue fluorescence)” value in data set [4] is on record as “exhibiting blue fluorescence”. For the same compound, the “PTP1B inhibitor status / relative potency” value on PTP1B is given as “not a PTP1B inhibitor”.
